According to US9458106B2, “Phenyl-pyridine/pyrazine amides for the treatment of cancer” (Hoffmann-La Roche Inc., priority 2013, dated 2016):

Tested on: HCT116 (colorectal cancer)
Test: In vitro cell proliferation assay (CCK-8), HCT116
Assay type: cell-based
Settings: Homo sapiens, HCT-116, HCT116 cells, 72 hours
Procedure: (§1) In Vitro Cell Proliferation Assay
(§2) Cells were seeded on 96-well plates at 5×10^3 cells per well and precultured for 24 hours. The cells were treated with serial diluted compounds and cultured for 72 hours. Then all media was discarded and after that, 100 μL 1:10 (v/v) Cell Counting Kit-8 (CCK-8)-culture media solution was added to the wells. Plate was developed for 2 hrs in an incubator, and the absorbance was measured at 450 nm wavelengths with SpectraMAX190 (MDS, Sunnyvale, Calif.). The inhibition rate (IR) of the tested compounds was determined with following formula: IR (%)=(ODDMSO−ODcompound)/ODDMSO×100%. The concentration corresponding to 50% IR (IC50) was determined with plot curve of IR against tested compound concentrations with SoftMax Pro.

IC50 | SMILES
2610 nM | NC(=O)[C@H](Nc1cncc(-c2cc(Cl)ccc2F)c1)c1ccccc1 [Example 1, (R)-2-[5-(5-Chloro-2-fluoro-phenyl)-pyridin-3-ylamino]-2-phenyl-cetamide]
740 nM | NC(=O)[C@H](Nc1cncc(-c2ccc(O)c(Cl)c2)c1)c1ccccc1 [Example 3, (R)-2-[5-(3-Chloro-4-hydroxy-phenyl)-pyridin-3-ylamino]-2-phenyl-acetamide]

Tested on: AGS (gastric cancer)
Test: In vitro cell proliferation assay (CCK-8), AGS
Assay type: cell-based
Settings: Homo sapiens, AGS cells, 72 hours
Procedure: as §1, §2

IC50 | SMILES
2.66 µM | NC(=O)[C@H](Nc1cncc(-c2cc(Cl)ccc2F)c1)c1ccccc1 [Example 1, (R)-2-[5-(5-Chloro-2-fluoro-phenyl)-pyridin-3-ylamino]-2-phenyl-cetamide]
0.517 µM | NC(=O)[C@H](Nc1cncc(-c2ccc(O)c(Cl)c2)c1)c1ccccc1 [Example 3, (R)-2-[5-(3-Chloro-4-hydroxy-phenyl)-pyridin-3-ylamino]-2-phenyl-acetamide]

Tested on: DLD-1 (colorectal cancer)
Test: In vitro cell proliferation assay (CCK-8), DLD-1
Assay type: cell-based
Settings: Homo sapiens, DLD-1 cells, 72 hours
Procedure: as §1, §2

IC50 | SMILES
0.604 µM | NC(=O)[C@H](Nc1cncc(-c2ccc(O)c(Cl)c2)c1)c1ccccc1 [Example 3, (R)-2-[5-(3-Chloro-4-hydroxy-phenyl)-pyridin-3-ylamino]-2-phenyl-acetamide]

Target: T1, CDK8/Cyclin C (Homo sapiens, UniProt P49336)
T1 construct: purchased Invitrogen PV4402
Test: CDK8/Cyclin C LANCE TR-FRET kinase assay
Assay type: biochemical
Settings: CDK8/Cyclin C 10 nM, ATP 24 μM, Ulight-GS peptide 80 nM, 37° C. 30 mins
Excerpt: CDK8/Cyclin C LANCE TR-FRET Kinase Assay
The biological activity of the compounds of the invention can be determined using the assay described below.
CDK8/Cyclin C protein was obtained from Invitrogen, cat #PV4402. ULight-Glycogen Synthase (Ulight-GS) peptide with sequence PASVPPSPSLSRHSSPHQ(pS)ED, and Europium-anti-phospho Glycogen Synthase (Ser641) [Eu-anti-P-GS (Ser641)] were obtained from Perkin Elmer, cat #TRF0131-M and cat #TRF0220. Adenosine-5′-triphosphate (ATP) was obtained from Invitrogen, cat #PV3227.
A mixture of (1) a compound of formula I, (2) substrate [Ulight-GS peptide (80 nM) and ATP (24 μM)], and (3) CDK8/Cyclin C (10 nM) in reaction buffer (50 mM Hepes, pH7.0, 10 mM MgCl2, 1 mM EGTA, 0.2 mg/mL BSA, 0.8 mM DTT) were incubated at 37° C. for 30 mins. Then, [Eu-anti-P-GS (Ser641)] (1.5 nM) was added. Following incubation at RT for 30 mins, the TR-FRET signals were detected using Envision reader (Ex 340 nm, Em 615 nm and 665 nm) from Perkin Elmer. The reactivity in percentage of inhibition or dose response was analyzed with GraphPad Prism 5 (GraphPad Software).

T1 sequence (P49336 whole entry): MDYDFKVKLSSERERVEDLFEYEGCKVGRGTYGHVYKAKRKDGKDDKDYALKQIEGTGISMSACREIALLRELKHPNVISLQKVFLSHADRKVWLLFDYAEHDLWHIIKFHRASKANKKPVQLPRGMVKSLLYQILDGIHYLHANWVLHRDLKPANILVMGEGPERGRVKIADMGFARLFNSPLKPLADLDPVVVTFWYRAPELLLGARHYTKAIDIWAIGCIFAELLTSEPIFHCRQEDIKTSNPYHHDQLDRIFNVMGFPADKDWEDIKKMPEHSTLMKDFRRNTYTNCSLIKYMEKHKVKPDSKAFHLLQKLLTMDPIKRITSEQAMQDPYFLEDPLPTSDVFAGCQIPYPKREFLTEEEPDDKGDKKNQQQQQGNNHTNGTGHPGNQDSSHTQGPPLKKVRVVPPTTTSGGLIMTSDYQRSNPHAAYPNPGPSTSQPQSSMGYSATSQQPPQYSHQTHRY
T1 sequence (P24863 whole entry partner): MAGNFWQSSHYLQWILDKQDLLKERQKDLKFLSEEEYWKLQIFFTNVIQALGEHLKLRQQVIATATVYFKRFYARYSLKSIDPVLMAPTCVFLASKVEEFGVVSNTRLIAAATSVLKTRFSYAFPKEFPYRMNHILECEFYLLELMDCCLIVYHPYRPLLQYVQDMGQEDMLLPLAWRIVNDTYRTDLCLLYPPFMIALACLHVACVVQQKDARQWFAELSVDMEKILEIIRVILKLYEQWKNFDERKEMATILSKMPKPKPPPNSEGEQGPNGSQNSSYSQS

SMILES | IC50
NC(=O)C(Nc1cncc(-c2ccc(O)c(Cl)c2)c1)c1ccccc1 (centres unmarked) [Example 2, 2-[5-(3-Chloro-4-hydroxy-phenyl)-pyridin-3-ylamino]-2-phenyl-acetamide] | 105 nM
NC(=O)[C@H](Nc1cncc(-c2ccc(O)c(Cl)c2)c1)c1ccccc1 [Example 3, (R)-2-[5-(3-Chloro-4-hydroxy-phenyl)-pyridin-3-ylamino]-2-phenyl-acetamide] | 7.1 nM
NC(=O)[C@@H](Nc1cncc(-c2ccc(O)c(Cl)c2)c1)c1ccccc1 [Example 4, (S)-2-[5-(3-Chloro-4-hydroxy-phenyl)-pyridin-3-ylamino]-2-phenyl-acetamide] | 471 nM
Cc1ccncc1-c1cncc(NC(C(N)=O)c2ccccc2)c1 (centres unmarked) [Example 5, 2-(4′-Methyl-[3,3′]bipyridinyl-5-ylamino)-2-phenyl-acetamide] | 133 nM
COc1cc(-c2cncc(NC(C(N)=O)c3ccccc3)c2)ccn1 (centres unmarked) [Example 6, 2-(2′-Methoxy-[3,4′]bipyridinyl-5-ylamino)-2-phenyl-acetamide] | 2170 nM
CCOc1ccc(F)c(-c2cncc(NC(C(N)=O)c3ccccc3)c2)c1 (centres unmarked) [Example 7, 2-[5-(5-Ethoxy-2-fluoro-phenyl)-pyridin-3-ylamino]-2-phenyl-acetamide] | 1100 nM
NC(=O)C(Nc1cncc(-c2ccc(F)c(Cl)c2)c1)c1ccccc1 (centres unmarked) [Example 8, 2-[5-(3-Chloro-4-fluoro-phenyl)-pyridin-3-ylamino]-2-phenyl-acetamide] | 2340 nM
COc1cc(-c2cncc(NC(C(N)=O)c3ccccc3)c2)c(F)cn1 (centres unmarked) [Example 9, 2-(5′-Fluoro-2′-methoxy-[3,4′]bipyridinyl-5-ylamino)-2-phenyl-acetamide] | 1150 nM
NC(=O)C(Nc1cncc(-c2cncc(Cl)c2)c1)c1ccccc1 (centres unmarked) [Example 10, 2-(5′-Chloro-[3,3′]bipyridinyl-5-ylamino)-2-phenyl-acetamide] | 1390 nM
COc1ccc(F)c(-c2cncc(NC(C(N)=O)c3ccccc3)c2)c1 (centres unmarked) [Example 16, 2-[5-(2-Fluoro-5-methoxy-phenyl)-pyridin-3-ylamino]-2-phenyl-acetamide] | 264 nM
CS(=O)(=O)NC(=O)C(Nc1cncc(-c2cc(Cl)ccc2F)c1)c1ccccc1 (centres unmarked) [Example 22, N-{2-[5-(5-Chloro-2-fluoro-phenyl)-pyridin-3-ylamino]-2-phenyl-acetyl}-methanesulfonamide] | 7740 nM
NC(=O)C(Nc1cncc(-c2cc(Cl)c(F)cc2F)c1)c1ccccc1 (centres unmarked) [Example 23, 2-[5-(5-Chloro-2,4-difluoro-phenyl)-pyridin-3-ylamino]-2-phenyl-acetamide] | 721 nM
NC(=O)C(Nc1cncc(-c2ccc(O)c(Cl)c2)n1)c1ccccc1 (centres unmarked) [Example 26, 2-[6-(3-Chloro-4-hydroxy-phenyl)-pyrazin-2-ylamino]-2-phenyl-acetamide] | 4.8 nM
NC(=O)[C@H](Nc1cncc(-c2ccc(O)c(Cl)c2)n1)c1ccccc1 [Example 27, (R)-2-[6-(3-Chloro-4-hydroxy-phenyl)-pyrazin-2-ylamino]-2-phenyl-acetamide] | 2.8 nM
NC(=O)[C@@H](Nc1cncc(-c2ccc(O)c(Cl)c2)n1)c1ccccc1 [Example 28, (S)-2-[6-(3-Chloro-4-hydroxy-phenyl)-pyrazin-2-ylamino]-2-phenyl-acetamide] | 32.9 nM
NC(=O)C(Nc1cncc(-c2cc(Cl)ccc2F)n1)c1ccccc1 (centres unmarked) [Example 29, 2-[6-(5-Chloro-2-fluoro-phenyl)-pyrazin-2-ylamino]-2-phenyl-acetamide] | 123 nM
NC(=O)[C@H](Nc1cncc(-c2cc(Cl)ccc2F)n1)c1ccccc1 [Example 30, (R)-2-[6-(5-Chloro-2-fluoro-phenyl)-pyrazin-2-ylamino]-2-phenyl-aceamide] | 54.7 nM
NC(=O)[C@@H](Nc1cncc(-c2cc(Cl)ccc2F)n1)c1ccccc1 [Example 31, (S)-2-[6-(5-Chloro-2-fluoro-phenyl)-pyrazin-2-ylamino]-2-phenyl-acetamide] | 828 nM
COc1cccc(-c2cncc(NC(C(N)=O)c3ccccc3)n2)c1 (centres unmarked) [Example 32, 2-[6-(3-Methoxy-phenyl)-pyrazin-2-ylamino]-2-phenyl-acetamide] | 430 nM
COc1cccc(-c2cncc(N[C@@H](C(N)=O)c3ccccc3)n2)c1 [Example 33, (R)-2-[6-(3-Methoxy-phenyl)-pyrazin-2-ylamino]-2-phenyl-acetamide] | 567 nM

The next lines start with the values.

IC50 | SMILES
91.7 nM | NC(=O)[C@H](Nc1cncc(-c2cc(Cl)ccc2F)c1)c1ccccc1 [Example 1, (R)-2-[5-(5-Chloro-2-fluoro-phenyl)-pyridin-3-ylamino]-2-phenyl-cetamide]
35.9 nM | Cc1ccccc1C(Nc1cncc(-c2cc(Cl)ccc2F)c1)C(N)=O (centres unmarked) [Example 11, 2-[5-(5-Chloro-2-fluoro-phenyl)-pyridin-3-ylamino]-2-o-tolyl-acetamide]
38.5 nM | NC(=O)C(Nc1cncc(-c2cc(Cl)ccc2F)c1)c1ccccc1F (centres unmarked) [Example 12, 2-[5-(5-Chloro-2-fluoro-phenyl)-pyridin-3-ylamino]-2-(2-fluoro-phenyl)-acetamide]
566 nM | Cc1cccc(C(Nc2cncc(-c3cc(Cl)ccc3F)c2)C(N)=O)c1 (centres unmarked) [Example 13, 2-[5-(5-Chloro-2-fluoro-phenyl)-pyridin-3-ylamino]-2-m-tolyl-acetamide]
11 nM | NC(=O)C(Nc1cncc(-c2cc(Cl)ccc2F)c1)c1ccccc1Cl (centres unmarked) [Example 14, 2-[5-(5-Chloro-2-fluoro-phenyl)-pyridin-3-ylamino]-2-(2-chloro-phenyl)-acetamide]
123 nM | NC(=O)C(Nc1cncc(-c2cc(Cl)ccc2F)c1)c1cc(F)ccc1F (centres unmarked) [Example 15, 2-[5-(5-Chloro-2-fluoro-phenyl)-pyridin-3-ylamino]-2-(2,5-difluoro-phenyl)-acetamide]
54.2 nM | NC(=O)C(Nc1cncc(-c2cc(Cl)ccc2F)c1)c1ccsc1 (centres unmarked) [Example 17, 2-[5-(5-Chloro-2-fluoro-phenyl)-pyridin-3-ylamino]-2-thiophen-3-yl-acetamide]
240 nM | Cc1ccc(C(Nc2cncc(-c3cc(Cl)ccc3F)c2)C(N)=O)cc1 (centres unmarked) [Example 18, 2-[5-(5-Chloro-2-fluoro-phenyl)-pyridin-3-ylamino]-2-p-tolyl-acetamide]
432 nM | NC(=O)C(Nc1cncc(-c2cc(Cl)ccc2F)c1)c1cccc(Cl)c1 (centres unmarked) [Example 19, 2-[5-(5-Chloro-2-fluoro-phenyl)-pyridin-3-ylamino]-2-(3-chloro-phenyl)-acetamide]
1080 nM | NC(=O)C(Nc1cncc(-c2cc(Cl)ccc2F)c1)c1ccc(Cl)cc1 (centres unmarked) [Example 20, 2-[5-(5-Chloro-2-fluoro-phenyl)-pyridin-3-ylamino]-2-(4-chloro-phenyl)-acetamide]
101 nM | COc1cccc(C(Nc2cncc(-c3cc(Cl)ccc3F)c2)C(N)=O)c1 (centres unmarked) [Example 21, 2-[5-(5-Chloro-2-fluoro-phenyl)-pyridin-3-ylamino]-2-(3-methoxy-phenyl)-acetamide]
2110 nM | NC(=O)C(Nc1cncc(-c2cc(Cl)ccc2F)c1)c1ccccn1 (centres unmarked) [Example 24, 2-[5-(5-Chloro-2-fluoro-phenyl)-pyridin-3-ylamino]-2-pyridin-2-yl-acetamide]
85.4 nM | NC(=O)C(Nc1cncc(-c2cc(Cl)ccc2F)c1)c1cccs1 (centres unmarked) [Example 25, 2-[5-(5-Chloro-2-fluoro-phenyl)-pyridin-3-ylamino]-2-thiophen-2-yl-acetamide]
